Key:
[1] = biological target: T1, Cannabinoid receptor 1 (Homo sapiens, UniProt P21554); assay type: functional, cell-based
[2] = biological target: Histamine H3 receptor (Homo sapiens, UniProt Q9Y5N1)
[3] = biological target: T2, Sodium-dependent serotonin transporter (Homo sapiens, UniProt P31645)
[4] = biological target: Muscarinic acetylcholine receptor M3 (Homo sapiens, UniProt P20309)
[5] = biological target: Beta-1 adrenergic receptor (Homo sapiens, UniProt P08588); assay type: functional
Beta-1 adrenergic receptor, sequence (P08588 whole entry): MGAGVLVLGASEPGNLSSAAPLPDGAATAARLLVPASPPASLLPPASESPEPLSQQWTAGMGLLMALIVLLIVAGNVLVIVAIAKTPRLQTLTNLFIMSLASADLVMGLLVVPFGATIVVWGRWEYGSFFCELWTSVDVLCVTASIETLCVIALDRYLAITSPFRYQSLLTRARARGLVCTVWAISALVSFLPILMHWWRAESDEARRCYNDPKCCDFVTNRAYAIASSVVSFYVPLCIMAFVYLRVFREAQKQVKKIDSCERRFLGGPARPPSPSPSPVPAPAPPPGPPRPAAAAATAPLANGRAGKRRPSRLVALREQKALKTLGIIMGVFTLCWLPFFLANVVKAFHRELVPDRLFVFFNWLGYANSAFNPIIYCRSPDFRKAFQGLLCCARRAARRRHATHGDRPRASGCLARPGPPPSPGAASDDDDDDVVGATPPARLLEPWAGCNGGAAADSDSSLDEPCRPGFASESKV

[6] = biological target: T3, Endothelin-1 receptor (Homo sapiens, UniProt P25101)
T3 sequence (P25101 whole entry): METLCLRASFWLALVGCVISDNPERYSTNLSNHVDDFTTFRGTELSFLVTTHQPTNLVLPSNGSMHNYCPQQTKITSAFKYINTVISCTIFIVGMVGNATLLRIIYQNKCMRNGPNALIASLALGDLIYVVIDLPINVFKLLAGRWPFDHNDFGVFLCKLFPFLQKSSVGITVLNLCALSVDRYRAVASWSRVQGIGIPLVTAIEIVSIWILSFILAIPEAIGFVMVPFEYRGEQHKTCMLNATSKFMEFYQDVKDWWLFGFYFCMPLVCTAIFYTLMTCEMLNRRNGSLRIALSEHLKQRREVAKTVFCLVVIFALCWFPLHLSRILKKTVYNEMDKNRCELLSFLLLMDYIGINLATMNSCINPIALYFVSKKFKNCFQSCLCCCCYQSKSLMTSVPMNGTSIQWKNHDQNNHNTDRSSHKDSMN

[7] = biological target: Beta-2 adrenergic receptor (Homo sapiens, UniProt P07550); assay type: functional, cell-based
Beta-2 adrenergic receptor, sequence (P07550 whole entry): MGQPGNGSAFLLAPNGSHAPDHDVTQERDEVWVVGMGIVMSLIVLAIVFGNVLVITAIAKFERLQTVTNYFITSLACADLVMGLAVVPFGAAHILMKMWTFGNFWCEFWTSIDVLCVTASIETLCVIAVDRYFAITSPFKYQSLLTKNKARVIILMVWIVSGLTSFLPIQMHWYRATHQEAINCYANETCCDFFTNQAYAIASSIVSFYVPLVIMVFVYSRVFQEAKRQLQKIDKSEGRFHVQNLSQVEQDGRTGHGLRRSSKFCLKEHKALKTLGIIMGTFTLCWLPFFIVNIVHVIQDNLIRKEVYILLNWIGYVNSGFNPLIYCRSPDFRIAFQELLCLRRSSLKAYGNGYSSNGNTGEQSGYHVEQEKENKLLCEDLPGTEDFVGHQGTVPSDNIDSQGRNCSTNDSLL

[8] = biological target: T4, B2 bradykinin receptor (Homo sapiens, UniProt P30411)
T4 sequence (P30411 whole entry): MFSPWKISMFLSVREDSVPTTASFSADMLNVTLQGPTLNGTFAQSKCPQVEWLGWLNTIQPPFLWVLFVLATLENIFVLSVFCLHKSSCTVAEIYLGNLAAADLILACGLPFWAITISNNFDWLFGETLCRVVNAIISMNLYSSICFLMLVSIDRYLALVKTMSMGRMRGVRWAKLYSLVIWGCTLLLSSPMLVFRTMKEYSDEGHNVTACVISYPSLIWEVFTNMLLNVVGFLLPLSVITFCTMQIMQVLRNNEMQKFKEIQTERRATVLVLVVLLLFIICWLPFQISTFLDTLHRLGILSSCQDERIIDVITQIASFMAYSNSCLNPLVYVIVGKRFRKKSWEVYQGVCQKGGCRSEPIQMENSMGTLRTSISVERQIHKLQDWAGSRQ

[9] = biological target: T1, Cannabinoid receptor 1
[10] = biological target: Prostaglandin G/H synthase 1 (Homo sapiens, UniProt P23219); assay type: functional
Prostaglandin G/H synthase 1, sequence (P23219 whole entry): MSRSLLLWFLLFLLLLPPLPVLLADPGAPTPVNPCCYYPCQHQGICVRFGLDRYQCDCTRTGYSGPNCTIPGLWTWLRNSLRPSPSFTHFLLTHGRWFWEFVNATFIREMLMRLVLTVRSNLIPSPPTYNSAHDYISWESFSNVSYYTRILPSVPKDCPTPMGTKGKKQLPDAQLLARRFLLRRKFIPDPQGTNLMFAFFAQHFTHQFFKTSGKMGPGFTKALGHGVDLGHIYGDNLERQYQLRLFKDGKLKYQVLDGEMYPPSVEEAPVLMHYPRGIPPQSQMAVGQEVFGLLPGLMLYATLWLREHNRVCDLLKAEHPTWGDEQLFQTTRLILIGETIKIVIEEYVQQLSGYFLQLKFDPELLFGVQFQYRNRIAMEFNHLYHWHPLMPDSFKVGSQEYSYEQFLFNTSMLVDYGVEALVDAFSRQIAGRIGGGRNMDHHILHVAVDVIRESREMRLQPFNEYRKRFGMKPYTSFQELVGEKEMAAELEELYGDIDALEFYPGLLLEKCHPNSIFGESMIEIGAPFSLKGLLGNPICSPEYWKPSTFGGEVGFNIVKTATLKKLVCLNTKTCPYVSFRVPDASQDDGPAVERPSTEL

[11] = biological target: T5, Thromboxane A2 receptor (Homo sapiens, UniProt P21731); assay type: functional, cell-based
T5 sequence (P21731 whole entry): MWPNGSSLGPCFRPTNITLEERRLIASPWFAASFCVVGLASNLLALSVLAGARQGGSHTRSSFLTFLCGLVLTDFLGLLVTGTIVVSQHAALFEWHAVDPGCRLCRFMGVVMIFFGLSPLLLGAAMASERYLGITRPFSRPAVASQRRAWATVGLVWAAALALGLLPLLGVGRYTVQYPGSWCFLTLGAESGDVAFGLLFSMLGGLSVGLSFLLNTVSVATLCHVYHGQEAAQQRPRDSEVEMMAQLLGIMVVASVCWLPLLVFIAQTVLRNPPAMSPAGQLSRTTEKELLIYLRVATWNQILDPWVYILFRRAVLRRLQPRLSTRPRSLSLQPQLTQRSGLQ

[12] = biological target: Sodium-dependent dopamine transporter (Homo sapiens, UniProt Q01959)
Sodium-dependent dopamine transporter, sequence (Q01959 whole entry): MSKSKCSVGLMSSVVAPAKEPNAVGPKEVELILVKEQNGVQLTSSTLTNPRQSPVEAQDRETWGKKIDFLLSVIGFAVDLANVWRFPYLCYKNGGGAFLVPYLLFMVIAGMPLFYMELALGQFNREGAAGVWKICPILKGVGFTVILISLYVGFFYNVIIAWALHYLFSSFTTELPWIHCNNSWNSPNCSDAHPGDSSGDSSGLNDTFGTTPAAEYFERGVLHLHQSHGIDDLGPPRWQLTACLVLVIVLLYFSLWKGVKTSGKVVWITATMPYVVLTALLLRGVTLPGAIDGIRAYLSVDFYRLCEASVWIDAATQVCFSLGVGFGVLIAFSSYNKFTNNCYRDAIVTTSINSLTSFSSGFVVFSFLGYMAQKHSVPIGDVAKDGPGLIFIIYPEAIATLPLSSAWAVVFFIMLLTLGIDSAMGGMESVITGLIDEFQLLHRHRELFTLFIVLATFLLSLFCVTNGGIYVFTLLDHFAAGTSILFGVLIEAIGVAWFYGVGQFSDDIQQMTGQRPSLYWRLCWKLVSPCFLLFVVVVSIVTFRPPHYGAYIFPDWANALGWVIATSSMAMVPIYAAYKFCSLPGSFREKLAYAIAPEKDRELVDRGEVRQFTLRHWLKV

[13] = biological target: D(1A) dopamine receptor (Homo sapiens, UniProt P21728)
D(1A) dopamine receptor, sequence (P21728 whole entry): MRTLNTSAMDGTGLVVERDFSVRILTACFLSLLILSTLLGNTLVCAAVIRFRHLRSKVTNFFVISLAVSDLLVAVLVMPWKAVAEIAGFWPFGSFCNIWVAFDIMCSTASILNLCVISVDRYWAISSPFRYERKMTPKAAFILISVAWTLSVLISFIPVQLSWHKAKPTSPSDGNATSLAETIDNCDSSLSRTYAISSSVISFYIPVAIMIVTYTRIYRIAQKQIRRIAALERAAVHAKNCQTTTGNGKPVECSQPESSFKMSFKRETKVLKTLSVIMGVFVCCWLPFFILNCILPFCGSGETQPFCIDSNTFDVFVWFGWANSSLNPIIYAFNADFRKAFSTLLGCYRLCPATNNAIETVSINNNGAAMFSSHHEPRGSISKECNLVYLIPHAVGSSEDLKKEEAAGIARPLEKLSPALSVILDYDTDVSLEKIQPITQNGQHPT

[14] = biological target: T2, Sodium-dependent serotonin transporter; remark: listed apart in the source
Note: assay procedure not described here.

T2 sequence (P31645 whole entry): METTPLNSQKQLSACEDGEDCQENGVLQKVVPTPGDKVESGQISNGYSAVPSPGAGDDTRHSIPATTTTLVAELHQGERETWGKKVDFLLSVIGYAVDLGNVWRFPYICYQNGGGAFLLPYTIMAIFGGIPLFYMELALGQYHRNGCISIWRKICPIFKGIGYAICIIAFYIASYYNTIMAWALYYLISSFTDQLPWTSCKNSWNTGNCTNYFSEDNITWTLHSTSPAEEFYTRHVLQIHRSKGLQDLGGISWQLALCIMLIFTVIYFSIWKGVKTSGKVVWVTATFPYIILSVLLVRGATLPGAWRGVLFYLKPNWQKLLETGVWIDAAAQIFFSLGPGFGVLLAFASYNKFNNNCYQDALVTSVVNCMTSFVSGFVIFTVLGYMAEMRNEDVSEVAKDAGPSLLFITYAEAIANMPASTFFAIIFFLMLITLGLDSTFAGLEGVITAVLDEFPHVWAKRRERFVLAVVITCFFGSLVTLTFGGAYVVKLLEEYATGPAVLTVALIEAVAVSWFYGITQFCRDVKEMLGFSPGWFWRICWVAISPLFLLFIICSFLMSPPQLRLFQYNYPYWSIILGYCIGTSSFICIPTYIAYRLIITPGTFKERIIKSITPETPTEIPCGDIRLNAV
Histamine H3 receptor, sequence (Q9Y5N1 whole entry): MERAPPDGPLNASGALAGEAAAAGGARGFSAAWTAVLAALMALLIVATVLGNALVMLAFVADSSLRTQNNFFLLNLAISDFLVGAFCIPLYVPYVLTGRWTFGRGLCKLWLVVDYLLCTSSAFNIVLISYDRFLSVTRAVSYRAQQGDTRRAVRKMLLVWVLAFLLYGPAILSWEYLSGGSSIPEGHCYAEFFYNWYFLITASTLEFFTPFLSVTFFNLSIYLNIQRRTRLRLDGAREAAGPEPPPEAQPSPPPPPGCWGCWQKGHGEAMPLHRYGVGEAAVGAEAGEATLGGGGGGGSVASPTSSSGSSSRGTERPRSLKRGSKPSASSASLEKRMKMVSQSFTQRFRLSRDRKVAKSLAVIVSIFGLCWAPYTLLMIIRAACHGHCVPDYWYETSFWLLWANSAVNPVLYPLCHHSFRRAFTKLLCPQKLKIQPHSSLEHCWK
T1 sequence (P21554 whole entry): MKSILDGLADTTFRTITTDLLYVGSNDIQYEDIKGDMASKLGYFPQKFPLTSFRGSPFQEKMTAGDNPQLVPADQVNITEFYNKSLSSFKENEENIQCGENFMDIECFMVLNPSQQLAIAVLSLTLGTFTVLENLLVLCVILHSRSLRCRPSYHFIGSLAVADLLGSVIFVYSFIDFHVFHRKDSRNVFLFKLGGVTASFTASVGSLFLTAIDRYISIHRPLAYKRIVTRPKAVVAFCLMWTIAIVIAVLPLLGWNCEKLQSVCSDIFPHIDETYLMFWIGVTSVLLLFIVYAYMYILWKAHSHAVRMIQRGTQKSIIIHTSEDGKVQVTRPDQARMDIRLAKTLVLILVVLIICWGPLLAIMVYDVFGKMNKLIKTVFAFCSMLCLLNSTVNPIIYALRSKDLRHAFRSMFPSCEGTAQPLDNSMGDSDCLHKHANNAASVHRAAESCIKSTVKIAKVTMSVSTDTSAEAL
Muscarinic acetylcholine receptor M3, sequence (P20309 whole entry): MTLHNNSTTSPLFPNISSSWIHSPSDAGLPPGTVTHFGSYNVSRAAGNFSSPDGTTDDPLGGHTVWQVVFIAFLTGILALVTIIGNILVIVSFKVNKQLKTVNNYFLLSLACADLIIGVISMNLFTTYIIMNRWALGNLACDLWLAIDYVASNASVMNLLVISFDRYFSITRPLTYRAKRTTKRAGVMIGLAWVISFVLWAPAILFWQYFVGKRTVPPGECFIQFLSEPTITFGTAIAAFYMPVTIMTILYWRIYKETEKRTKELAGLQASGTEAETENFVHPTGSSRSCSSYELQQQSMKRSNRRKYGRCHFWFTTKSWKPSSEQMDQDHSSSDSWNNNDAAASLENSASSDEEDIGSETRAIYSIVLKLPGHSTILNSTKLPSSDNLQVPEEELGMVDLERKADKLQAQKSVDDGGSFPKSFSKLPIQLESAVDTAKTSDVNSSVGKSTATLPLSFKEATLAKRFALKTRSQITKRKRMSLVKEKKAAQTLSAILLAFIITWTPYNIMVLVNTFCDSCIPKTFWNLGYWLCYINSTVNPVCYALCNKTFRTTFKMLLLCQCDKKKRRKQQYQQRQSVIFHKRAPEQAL

| SMILES | AC50 [1] [µM] | AC50 [2] [µM] | AC50 [3] [µM] | AC50 [4] [µM] | AC50 [5] [µM] | AC50 [6] [µM] | AC50 [7] [µM] | AC50 [8] [µM] | AC50 [9] [µM] | AC50 [10] [µM] | AC50 [11] [µM] | AC50 [12] [µM] | AC50 [13] [µM] | AC50 [14] [µM] |
| --- | --- | --- | --- | --- | --- | --- | --- | --- | --- | --- | --- | --- | --- | --- |
| CC(C)(CO)c1cc2cc(NC(=O)C3(c4ccc5c(c4)OC(F)(F)O5)CC3)c(F)cc2n1C[C@@H](O)CO [TEZACAFTOR] | > 30 | > 30 | > 30 | > 30 | > 30 | > 30 | > 30 | – | – | – | – | – | – | – |
| CC[N+](CC)(CCNC(=O)C(=O)NCC[N+](CC)(CC)Cc1ccccc1Cl)Cc1ccccc1Cl [AMBENONIUM] | > 30 | 21 | 6.1 | 1.1 | > 30 | > 30 | – | > 30 | – | – | – | – | – | – |
| NCCCCCC(=O)O [AMINOCAPROIC ACID] | – | > 10 | – | – | > 10 | – | – | > 10 | > 10 | – | – | – | – | – |
| O=P1(N(CCCl)CCCl)NCCCO1 (stereo not drawn) [CYCLOPHOSPHAMIDE ANHYDROUS] | – | – | – | – | – | – | – | – | – | > 30 | > 30 | > 30 | > 30 | – |
| CCN(CCO)CCCC(C)Nc1ccnc2cc(Cl)ccc12 (stereo not drawn) [HYDROXYCHLOROQUINE] | – | – | – | – | – | – | – | > 10 | > 10 | – | – | – | – | – |
| NCCCNCCSP(=O)(O)O [AMIFOSTINE] | > 30 | > 30 | – | – | > 30 | > 30 | > 30 | > 30 | – | – | – | – | – | – |
| CC(C)C[C@H](NC(=O)[C@H](Cc1ccccc1)NC(=O)c1cnccn1)B(O)O [BORTEZOMIB] | – | > 30 | > 30 | > 30 | > 30 | – | – | > 30 | > 30 | – | – | – | – | – |
| CC(=O)SCC(Cc1ccccc1)C(=O)NCC(=O)OCc1ccccc1 (stereo not drawn) [RACECADOTRIL] | > 30 | > 30 | > 30 | > 30 | > 30 | > 30 | – | > 30 | > 10 | – | – | – | – | – |
| CN1CC2c3ccccc3Oc3ccc(Cl)cc3C2C1 (stereo not drawn) [ASENAPINE] | > 30 | > 30 | – | > 30 | > 30 | > 30 | > 30 | – | – | – | – | – | – | – |
| CS(=O)(=O)Nc1ccc([N+](=O)[O-])cc1Oc1ccccc1 [NIMESULIDE] | > 30 | > 30 | – | – | > 30 | > 30 | > 30 | 20 | – | – | > 30 | 26.6 | > 30 | – |
| COc1cc2c(cc1OC)C1CC(=O)C(CC(C)C)CN1CC2 (stereo not drawn) [TETRABENAZINE] | > 30 | > 30 | > 30 | > 30 | > 30 | > 30 | > 30 | – | – | – | – | – | – | – |
| O=C(O)[C@H]1/C(=C/CO)O[C@@H]2CC(=O)N21 [CLAVULANIC ACID] | > 30 | > 30 | > 30 | > 30 | > 30 | > 30 | > 30 | – | – | – | – | – | – | – |
| C[C@H](CCC(=O)O)[C@H]1CC[C@H]2[C@@H]3[C@H](O)C[C@@H]4C[C@H](O)CC[C@]4(C)[C@H]3CC[C@]12C [CHENODIOL] | > 30 | > 30 | – | > 30 | > 30 | > 30 | > 30 | – | – | – | – | – | – | – |
| CC(C)NCC(O)COc1ccc(CC(N)=O)cc1 (stereo not drawn) [ATENOLOL] | – | > 30 | – | – | – | – | – | > 30 | 26 | – | – | – | – | – |
| c1cnc2cc3c(cc2n1)[C@@H]1CNC[C@H]3C1 [VARENICLINE] | > 30 | > 30 | > 30 | > 30 | > 30 | > 30 | > 30 | – | – | – | – | – | – | – |
| C[C@H](Cn1cnc2c(N)ncnc21)OCP(=O)(O)O [TENOFOVIR ANHYDROUS] | – | > 30 | > 30 | > 30 | > 30 | – | – | > 30 | > 30 | – | – | – | – | – |
| CNC1(C)C2CCC(C2)C1(C)C (stereo not drawn) [MECAMYLAMINE] | – | – | > 10 | > 30 | > 10 | – | – | > 10 | > 10 | – | – | – | – | – |

| SMILES | AC50 [1] [µM] | AC50 [2] [µM] | AC50 [3] [µM] | AC50 [4] [µM] | AC50 [5] [µM] | AC50 [6] [µM] | AC50 [7] [µM] | AC50 [8] [µM] | AC50 [9] [µM] | AC50 [10] [µM] | AC50 [11] [µM] | AC50 [12] [µM] | AC50 [13] [µM] | AC50 [14] [µM] |
| --- | --- | --- | --- | --- | --- | --- | --- | --- | --- | --- | --- | --- | --- | --- |
| O=NN(CCCl)C(=O)NC1CCCCC1 [LOMUSTINE] | – | – | – | – | – | – | – | – | – | > 30 | > 30 | > 30 | > 30 | – |
| CNC1(c2ccccc2Cl)CCCCC1=O (stereo not drawn) [KETAMINE] | – | – | – | – | – | – | – | – | – | > 30 | > 30 | > 30 | > 30 | – |
| O=C(O)COC(=O)Cc1ccccc1Nc1c(Cl)cccc1Cl [ACECLOFENAC] | > 30 | > 10 | – | – | > 10 | – | – | > 30 | – | – | – | – | – | – |
| Nc1c2c(nc3ccccc13)CCCC2O (stereo not drawn) [VELNACRINE] | > 30 | > 30 | > 30 | > 30 | > 30 | > 30 | > 30 | – | – | – | – | – | – | – |
| CCOc1ccccc1OCCN[C@H](C)Cc1ccc(OC)c(S(N)(=O)=O)c1 [TAMSULOSIN] | – | > 10 | > 30 | > 30 | 2.5 | – | – | > 30 | > 10 | – | – | – | – | – |
| COC(=O)CCc1ccc(OCC(O)CNC(C)C)cc1 (stereo not drawn) [ESMOLOL] | – | > 30 | – | – | 0.856 | > 30 | – | > 30 | > 30 | – | – | – | – | – |
| CN(C)CCC=C1c2ccccc2CCc2ccccc21 [AMITRIPTYLINE] | > 30 | 24 | – | – | 22.7 | > 30 | – | > 30 | > 10 | > 30 | > 30 | 7.42 | – | – |
| CCC[C@@]1(CCc2ccccc2)CC(O)=C([C@H](CC)c2cccc(NS(=O)(=O)c3ccc(C(F)(F)F)cn3)c2)C(=O)O1 | > 30 | > 30 | > 30 | > 30 | > 30 | > 30 | > 30 | – | – | – | – | – | – | – |
| CCC1(c2ccccc2)C(=O)NCNC1=O [PRIMIDONE] | – | – | – | – | > 10 | – | – | > 10 | > 10 | – | – | – | – | – |
| CO[C@@H]1[C@@H](OC(N)=O)[C@@H](O)[C@H](Oc2ccc3c(O)c(NC(=O)c4ccc(O)c(CC=C(C)C)c4)c(=O)oc3c2C)OC1(C)C [NOVOBIOCIN] | > 30 | > 30 | > 30 | > 30 | > 30 | > 30 | > 30 | – | – | – | – | – | – | – |
| CC(=O)NC[C@H]1CN(c2ccc(N3CCOCC3)c(F)c2)C(=O)O1 [LINEZOLID] | > 30 | > 30 | – | > 30 | > 30 | > 30 | > 30 | > 30 | – | – | – | – | – | – |
| CCOCC(O)COc1ccc(NC(=O)CC[S+](C)C)cc1 (stereo not drawn) | > 30 | > 30 | > 30 | > 30 | > 30 | > 30 | > 30 | – | – | – | – | – | – | – |
| O=c1[nH]cc(F)c(=O)[nH]1 [FLUOROURACIL] | – | > 30 | – | – | > 30 | > 30 | – | > 30 | – | > 30 | > 30 | > 30 | – | – |
| O=C(c1ccccc1)c1ccc2n1CCC2C(=O)O (stereo not drawn) [KETOROLAC] | – | > 10 | – | – | > 10 | – | – | > 10 | > 30 | – | – | – | – | – |
| C[C@@H](O)[C@H]1C(=O)N2C(C(=O)O)=C(SCCN=CN)C[C@H]12 [IMIPENEM ANHYDROUS] | > 300 | 180 | > 300 | > 300 | > 300 | > 300 | > 300 | – | – | – | – | – | – | – |
| O=C(O)[C@@H](S)[C@@H](S)C(=O)O | – | – | – | – | – | – | – | – | – | > 30 | > 30 | > 30 | > 30 | > 30 |
